pIC50: −log10 of the molar value.

The target of this test is P. falciparum apicoplast DNA polymerase (Pf-apPOL) (Plasmodium falciparum, UniProt Q8ILY1). The test is described as follows: Fluorescence-based high-throughput DNA polymerase assay (molecular beacon), primary screen and dose-response. The test is classed as biochemical. The method in brief: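 Single-point screening used 10 µM compound with 20 nM polymerase, 20 nM hairpin substrate and 6 µM dNTPs for 90 min at 25 °C. Confirmatory titrations (2.5–80 µM) followed fluorescence at three times, and IC50 was derived from a fit including a cooperativity term n.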
P. falciparum apicoplast DNA polymerase (Pf-apPOL), sequence (Q8ILY1 entry or part of it): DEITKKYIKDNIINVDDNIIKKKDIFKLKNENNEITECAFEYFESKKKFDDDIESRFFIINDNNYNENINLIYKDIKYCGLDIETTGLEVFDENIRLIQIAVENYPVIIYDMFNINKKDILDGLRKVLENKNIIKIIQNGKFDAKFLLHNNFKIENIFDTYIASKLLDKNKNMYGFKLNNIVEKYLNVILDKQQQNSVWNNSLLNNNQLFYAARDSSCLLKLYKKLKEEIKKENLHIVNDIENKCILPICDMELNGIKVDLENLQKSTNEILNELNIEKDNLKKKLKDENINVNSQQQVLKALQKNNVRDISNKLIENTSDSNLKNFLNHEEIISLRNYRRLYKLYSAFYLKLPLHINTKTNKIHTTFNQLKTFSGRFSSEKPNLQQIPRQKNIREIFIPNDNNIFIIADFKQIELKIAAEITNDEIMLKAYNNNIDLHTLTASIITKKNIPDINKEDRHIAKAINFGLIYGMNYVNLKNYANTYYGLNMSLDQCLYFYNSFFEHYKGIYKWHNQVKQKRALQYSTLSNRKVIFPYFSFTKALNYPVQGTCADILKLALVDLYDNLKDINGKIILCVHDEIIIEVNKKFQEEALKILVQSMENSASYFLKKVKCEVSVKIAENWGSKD

Where [1] appears, read: primary screen value of the 186 hits; unit not given; 90 min, 10 µM.
Setting [2] is: supplemental file 2, sheet IC50 nontoxic compounds; Pf-apPOL.

With `Cc1ccnc(NS(=O)(=O)c2ccc(-n3cccc3)cc2)n1` [KU0034899], the “% inhibition Apo pol 10'” value is, setting by setting: (DRC-1; concentration 2.5; 10') 6.567%; (DRC-1; concentration 5; 10') 25.8281%; (DRC-1; concentration 10; 10') 43.5691%; (DRC-1; concentration 20; 10') 72.9985%; (DRC-1; concentration 40; 10') 90.805%; (DRC-1; concentration 80 (unit not given); 10') 93.2113%. Moreover, the “% inhibition Apol 90'” value (DRC-1; concentration 2.5; 90') is reported as 1.285%; the “% inhibition Apol 90'” value (DRC-1; concentration 5; 90') came out at 11.3898%; the “% inhibition Apol 90'” value (DRC-1; concentration 10; 90') is 23.2373%; the “% inhibition Apol 90'” value (DRC-1; concentration 20; 90') is on record as 50.5873%; the “% inhibition Apol 90'” value (DRC-1; concentration 40; 90') came out at 80.4805%; the “% inhibition Apol 90'” value (DRC-1; concentration 80; 90') is on record as 92.1996%. In addition, the “% inhibition apPOL 180'” value (DRC-1; concentration 2.5; 180') is on record as -4.513%; the “% inhibition apPOL 180'” value (DRC-1; concentration 5; 180') is 1.685%; the “% inhibition apPOL 180'” value (DRC-1; concentration 10; 180') worked out at 9.9045%; the “% inhibition apPOL 180'” value (DRC-1; concentration 20; 180') was 29.9217%; the “% inhibition apPOL 180'” value (DRC-1; concentration 40; 180') stood at 67.6388%; the “% inhibition apPOL 180'” value (DRC-1; concentration 80; 180') worked out at 89.3134%. Moreover, the “% inhibition apPOL 180'” value came out at 19% (DRC-2; concentration 2.5; 180'); 0.78% (DRC-2; concentration 5; 180'); 21% (DRC-2; concentration 10; 180'); 48% (DRC-2; concentration 20; 180'); 74% (DRC-2; concentration 40; 180'); 76% (DRC-2; concentration 80; 180'). Besides, the “% inhibition Apol 40'” value worked out at 59% (DRC-2; 40'; concentration 80); 31% (DRC-2; concentration 2.5; 40'); 20% (DRC-2; concentration 5; 40'); 42% (DRC-2; concentration 10; 40'); 62% (DRC-2; concentration 20; 40'); 73% (DRC-2; concentration 40; 40'). Besides, the “% inhibition Apol 40'” value (DRC-2; concentration 80; 40') came to 59%. Besides, the “% inhibition ApPOL 90'” value reads like this: (DRC-2; 90'; concentration 20) 59%; (DRC-2; concentration 2.5; 90') 29%; (DRC-2; concentration 5; 90') 14%; (DRC-2; concentration 10; 90') 37%; (DRC-2; concentration 20; 90') 59%; (DRC-2; concentration 40; 90') 75%. The “% inhibition ApPOL 90'” value (DRC-2; concentration 80; 90') is on record as 67%. Further, the “% inhibition Apo pol 5'” value (DRC-2; concentration 2.5; 5') is reported as 26%; the “% inhibition Apo pol 5'” value (DRC-2; concentration 5; 5') is recorded as 23%; the “% inhibition Apo pol 5'” value (DRC-2; concentration 10; 5') is listed as 41%; the “% inhibition Apo pol 5'” value (DRC-2; concentration 20; 5') came out at 49%; the “% inhibition Apo pol 5'” value (DRC-2; concentration 40; 5') is listed as 52%; the “% inhibition Apo pol 5'” value (DRC-2; concentration 80; 5') came out at 17%. Moreover, the “DNA Pol” value by setting is: under setting [1], 40; (primary screen value; head prints only 'DNA Pol'; 90 min, 10 µM) 40.
As for `O=C(Cn1ccc2c(=O)[nH]ccc21)Nc1ccc(Cl)cc1` [Molecule 36], the pIC50 (as a rule, −log10 of the IC50, conventionally taken in molar units) under setting [2] is 4.89.
Turning to `O=C(CSc1nnc(-c2ccncc2)[nH]1)c1ccc(O)c(O)c1` [Molecule 89], under setting [2], the negative logarithm of the IC50 (pIC50) is > 5.60.
Take `Cc1cc(C)c2c(O)nc(SCC(=O)c3ccc(O)c(O)c3)nc2n1` [Molecule 88, Cc1cc(C)c2c(n1)nc(nc2O)SCC(=O)c1ccc(c(c1)O)O]: the “% inhibition Apo pol 10'” value reads like this: (DRC-1; 10'; concentration 2.5) 66.1048%; (DRC-1; 10'; concentration 5) 84.19%; (DRC-1; 10'; concentration 10) 90.4679%; (DRC-1; 10'; concentration 20) 96.9488%; (DRC-1; 10'; concentration 40) 98.8856%; (DRC-1; 10'; concentration 80) 98.1462%. Also, the “% inhibition Apol 90'” value worked out at 42.8406% (DRC-1; 90'; concentration 2.5); 64.0677% (DRC-1; 90'; concentration 5); 76.3822% (DRC-1; 90'; concentration 10); 90.5503% (DRC-1; 90'; concentration 20); 93.4235% (DRC-1; 90'; concentration 40); 90.6466% (DRC-1; 90'; concentration 80). The “% inhibition apPOL 180'” value was determined as 28.0012% (DRC-1; 180'; concentration 2.5); 48.1017% (DRC-1; 180'; concentration 5); 62.9235% (DRC-1; 180'; concentration 10); 84.8942% (DRC-1; 180'; concentration 20); 86.2556% (DRC-1; 180'; concentration 40); 82.2791% (DRC-1; 180'; concentration 80). For the same compound, the “% inhibition apPOL 180'” value runs as follows: (DRC-2, 180', concentration 10 (unit not given)) 54%; (DRC-2, 180', concentration 20 (unit not given)) 63%; (DRC-2, 180', concentration 40 (unit not given)) 63%; (DRC-2; 180'; concentration 2.5) 18%; (DRC-2; 180'; concentration 5) 27%; (DRC-2; 180'; concentration 10) 54%. Further, the “% inhibition apPOL 180'” value amounted to 63% (DRC-2; 180'; concentration 20), 63% (DRC-2; 180'; concentration 40) and 53% (DRC-2; 180'; concentration 80). In addition, the “% inhibition Apol 40'” value was 63% (DRC-2, 40', concentration 10 (unit not given)); 71% (DRC-2, 40', concentration 20 (unit not given)); 54% (DRC-2, 40', concentration 80 (unit not given)); 32% (DRC-2; 40'; concentration 2.5); 45% (DRC-2; 40'; concentration 5); 63% (DRC-2; 40'; concentration 10). The “% inhibition Apol 40'” value reads like this: (DRC-2; 40'; concentration 20) 71%; (DRC-2; 40'; concentration 40) 72%; (DRC-2; 40'; concentration 80) 54%. Moreover, the “% inhibition ApPOL 90'” value was found to be 63% (DRC-2, 90', concentration 10 (unit not given)); 71% (DRC-2, 90', concentration 20 (unit not given)); 71% (DRC-2, 90', concentration 40 (unit not given)); 28% (DRC-2; 90'; concentration 2.5); 42% (DRC-2; 90'; concentration 5); 63% (DRC-2; 90'; concentration 10). The “% inhibition ApPOL 90'” value reads like this: (DRC-2; 90'; concentration 20) 71%; (DRC-2; 90'; concentration 40) 71%; (DRC-2; 90'; concentration 80) 56%. Further, the “% inhibition Apo pol 5'” value is 35% (DRC-2; 5'; concentration 2.5); 43% (DRC-2; 5'; concentration 5); 50% (DRC-2; 5'; concentration 10); 55% (DRC-2; 5'; concentration 20); 58% (DRC-2; 5'; concentration 40); 31% (DRC-2; 5'; concentration 80). For the same compound, the “DNA Pol” value runs as follows: under setting [1], 85; (primary screen value, head "DNA Pol", unit not given; 90 min, 10 µM) 85.
For the compound `O=C(O)c1cccc(N2N=C(C(F)(F)F)/C(=C/c3ccc(-c4ccccc4[N+](=O)[O-])o3)C2=O)c1` [Molecule 100], the pIC50 under setting [2] is 5.02.
Same read-out and setting: then `C#CC(C=CC)OC(=O)c1ccccc1C(=O)O` (stereo not shown) [Molecule 61], with 4.74.

For the origin of these results see PMC9090415, “Discovery of small molecule inhibitors of Plasmodium falciparum apicoplast DNA polymerase” (Journal of Enzyme Inhibition and Medicinal Chemistry, 2022).
